The text below walks through data of US9067871B2, “Aminotetraline derivatives, pharmaceutical compositions containing them, and their use in therapy” (ABBVIE DEUTSCHLAND GMBH & CO KG, priority 2009, dated 2015).

SMILES strings stand for the structures. Structures can show the parent of a compound that is named as a salt.

The target in one assay is human GlyT1c transporter (Homo sapiens (Human), UniProt P48067). The assay can be described thus: Radioligand binding assay using recombinant CHO cell membranes expressing human GlyT1. Conditions: human GlyT1c-expressing CHO cell membranes; hydrochloride; read-out: radioligand binding Kiapp. The source says: 2. Radioligand binding assays using recombinant CHO cell membranes expressing human GlyT1: […]
Sequence of human GlyT1c transporter (P48067 whole entry): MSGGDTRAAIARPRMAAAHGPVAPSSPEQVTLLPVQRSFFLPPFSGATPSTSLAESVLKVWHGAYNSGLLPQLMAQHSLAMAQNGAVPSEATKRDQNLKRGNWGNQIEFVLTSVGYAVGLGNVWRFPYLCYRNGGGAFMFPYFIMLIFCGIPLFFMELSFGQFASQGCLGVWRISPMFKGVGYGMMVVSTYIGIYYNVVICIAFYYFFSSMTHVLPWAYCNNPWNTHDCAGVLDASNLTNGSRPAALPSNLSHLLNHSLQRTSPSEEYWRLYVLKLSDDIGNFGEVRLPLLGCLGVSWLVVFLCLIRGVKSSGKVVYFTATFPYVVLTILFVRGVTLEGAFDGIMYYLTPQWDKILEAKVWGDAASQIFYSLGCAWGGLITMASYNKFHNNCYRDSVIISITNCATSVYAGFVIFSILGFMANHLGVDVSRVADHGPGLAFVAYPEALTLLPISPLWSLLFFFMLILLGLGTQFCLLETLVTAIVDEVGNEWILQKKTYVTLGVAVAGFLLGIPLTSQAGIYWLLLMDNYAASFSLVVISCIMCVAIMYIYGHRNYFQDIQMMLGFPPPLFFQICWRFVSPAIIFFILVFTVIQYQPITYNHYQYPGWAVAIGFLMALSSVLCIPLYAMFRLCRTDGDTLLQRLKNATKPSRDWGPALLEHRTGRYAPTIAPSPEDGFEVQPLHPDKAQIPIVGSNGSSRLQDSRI
For `NC1CCc2ccc(OCCNS(=O)(=O)CCC(F)(F)F)cc2C1Cc1ccccc1` (stereo not drawn) [Example 100, 3,3,3-Trifluoro-propane-1-sulfonic acid [2-(7-amino-8-benzyl-5,6,7,8-tetrahydronaphthalen-2-yloxy)-ethyl]amide hydrochloride], the Ki is at most 1000 nM.

The assay is the same for the next values; noted with them: human GlyT1c-expressing CHO cell membranes; read-out: radioligand binding Kiapp.
For the molecule `NC1CCc2ccc(OCCNS(=O)(=O)CC3CC3)cc2C1Cc1ccccc1` (stereo not drawn) [Example 121, N-(2-{[7-Amino-8-benzyl-5,6,7,8-tetrahydronaphthalen-2-yl]oxy}ethyl)-1-cyclopropylmethanesulfonamide hydrochloride], the Ki is at most 10 nM.

Turning to `CCCS(=O)(=O)NCCOc1ccc2c(c1)C(Cc1cccc(F)c1)C(N)CC2` (stereo not drawn) [Example 107, Propane-1-sulfonic acid {2-[7-amino-8-(3-fluoro-benzyl)-5,6,7,8-tetrahydro-naphthalen-2-yloxy]-ethyl}-amide hydrochloride], the Ki was at most 100 nM.

Turning to `CNC1CCc2ccc(CCNS(=O)(=O)c3cn(C)cn3)cc2C1Cc1cccc(Cl)c1` (stereo not drawn) [Example 313, 1-Methyl-1H-imidazole-4-sulfonic acid {2-[8-(3-chloro-benzyl)-7-methylamino-5,6,7,8-tetrahydro-naphthalen-2-yl]-ethyl}-amide], the Ki was at most 100 nM.

With `Cc1cccc(S(=O)(=O)NCc2ccc3c(c2)C(Cc2ccccc2)C(N)CC3)c1` (stereo not drawn) [Example 179, N-{[7-Amino-8-benzyl-5,6,7,8-tetrahydronaphthalen-2-yl]methyl}-3-methylbenzenesulfonamide hydrochloride], the Ki is at most 1000 nM.

On to `CC(=O)NC1CCc2ccc(OCCNS(=O)(=O)CC3CC3)cc2C1Cc1cccc(Cl)c1` (stereo not drawn) [Example 306, N-[1-(3-Chloro-benzyl)-7-(2-cyclopropylmethanesulfonylamino-ethoxy)-1,2,3,4-tetrahydronaphthalen-2-yl]-acetamide], for which the Ki is at most 100 nM.

On to `CCCS(=O)(=O)NCCCc1ccc2c(c1)C(Cc1cccc(Cl)c1)C(N1CCCC1)CC2` (stereo not drawn) [Example 264, N-{3-[8-(3-Chlorobenzyl)-7-(pyrrolidin-1-yl)-5,6,7,8-tetrahydronaphthalen-2-yl]propyl}propane-1-sulfonamide hydrochloride], for which the Ki is at most 1000 nM.

Take `Cn1cnc(S(=O)(=O)NCc2ccc3c(c2)C(Cc2cccc(F)c2)C(N)CC3)c1` (stereo not drawn) [Example 177, N-{[7-Amino-8-(3-fluorobenzyl)-5,6,7,8-tetrahydronaphthalen-2-yl]methyl}-1-methyl-1H-imidazole-4-sulfonamide hydrochloride]: the Ki is at most 10 nM.

Regarding `CCCS(=O)(=O)NCCCc1ccc2c(c1)C(Cc1ccc(Cl)c(Cl)c1)C(NC(C)C)CC2` (stereo not drawn) [Example 272, N-{3-[8-(3,4-Dichlorobenzyl)-7-(propan-2-ylamino)-5,6,7,8-tetrahydronaphthalen-2-yl]propyl}propane-1-sulfonamide], the Ki was at most 100 nM.

`CNC1CCc2ccc(CNS(=O)(=O)c3cccc(C)c3)cc2C1Cc1ccccc1` (stereo not drawn) [Example 189, N-{[8-Benzyl-7-(methylamino)-5,6,7,8-tetrahydronaphthalen-2-yl]methyl}-3-methylbenzenesulfonamide hydrochloride]: the Ki was at most 10000 nM.

Take `Cn1cnc(S(=O)(=O)NCCOc2ccc3c(c2)C(Cc2ccccc2Cl)C(N2CCCC2)CC3)c1` (stereo not drawn) [Example 315, 1-Methyl-1H-imidazole-4-sulfonic acid {2-[8-(2-chloro-benzyl)-7-pyrrolidin-1-yl-5,6,7,8-tetrahydro-naphthalen-2-yloxy]-ethyl}-amide hydrochloride]: the Ki was at most 1000 nM.

On to `CN(CCOc1ccc2c(c1)C(Cc1ccccc1)C(N1CCC1)CC2)S(=O)(=O)c1cnn(C)c1` (stereo not drawn) [Example 112, 1-Methyl-1H-pyrazole-4-sulfonic acid [2-(7-azetidin-1-yl-8-benzyl-5,6,7,8-tetrahydronaphthalen-2-yloxy)-ethyl]-methyl-amide hydrochloride], for which the Ki is at most 100 nM.

In the case of `CNC1CCc2ccc(OCCNS(=O)(=O)c3ccn(C)c3)cc2C1Cc1cc(F)cc(F)c1` (single isomer, unassigned; enantiomer 2) [Example 242, Enantiomer 2 of N-(2-{[8-(3,5-difluorobenzyl)-7-(methylamino)-5,6,7,8-tetrahydronaphthalen-2-yl]oxy}ethyl)-1-methyl-1H-pyrrole-3-sulfonamide hydrochloride], the Ki was at most 10 nM.

As to `CCCS(=O)(=O)N1CC(COc2ccc3c(c2)C(Cc2cccc(Cl)c2)C(NC(=O)OCC)CC3)C1` (stereo not drawn) [Example 285, {1-(3-Chloro-benzyl)-7-[1-(propane-1-sulfonyl)-azetidin-3-ylmethoxy]-1,2,3,4-tetrahydronaphthalen-2-yl}-carbamic acid ethyl ester], the Ki was at most 10000 nM.

With `CN(CCOc1ccc2c(c1)C(Cc1ccc(Cl)c(Cl)c1)C(N)CC2)S(=O)(=O)CC1CC1` (stereo not drawn) [Example 108, N-{2-[7-Amino-8-(3,4-dichloro-benzyl)-5,6,7,8-tetrahydro-naphthalen-2-yloxy]-ethyl}-C-cyclopropyl-N-methyl-methanesulfonamide hydrochloride], the Ki is at most 10 nM.

Turning to `Cc1nc(S(=O)(=O)NCCOc2ccc3c(c2)C(Cc2cccc(Cl)c2)C(N)CC3)cn1C` (stereo not drawn) [Example 316, 1,2-Dimethyl-1H-imidazole-4-sulfonic acid {2-[7-amino-8-(3-chloro-benzyl)-5,6,7,8-tetrahydro-naphthalen-2-yloxy]-ethyl}-amide hydrochloride], the Ki was at most 1000 nM.

For `CCCCS(=O)(=O)NCCOc1ccc2c(c1)C(Cc1ccc(Cl)c(Cl)c1)C(N)CC2` (stereo not drawn) [Example 90, Butane-1-sulfonic acid {2-[7-amino-8-(3,4-dichloro-benzyl)-5,6,7,8-tetrahydro-naphthalen-2-yloxy]-ethyl}-amide hydrochloride], the Ki was at most 1000 nM.

As for `CCN(CCOc1ccc2c(c1)C(Cc1ccccc1)C(N)CC2)S(=O)(=O)c1cnn(C)c1` (stereo not drawn) [Example 113, N-(2-(7-Amino-8-benzyl-5,6,7,8-tetrahydronaphthalen-2-yloxy)ethyl)-N-ethyl-1-methyl-1H-pyrazole-4-sulfonamide hydrochloride], the Ki is at most 100 nM.

On to `NC1CCc2ccc(CCCNS(=O)(=O)CC3CC3)cc2C1Cc1ccc(F)cc1` (stereo not drawn) [Example 208, N-{3-[7-Amino-8-(4-fluorobenzyl)-5,6,7,8-tetrahydronaphthalen-2-yl]propyl}-1-cyclopropylmethanesulfonamide hydrochloride], for which the Ki is at most 100 nM.

As for `CN(CCCc1ccc2c(c1)C(Cc1ccc(Cl)cc1)C(N)CC2)S(=O)(=O)CC1CC1` (stereo not drawn) [Example 233, N-{3-[7-Amino-8-(4-chlorobenzyl)-5,6,7,8-tetrahydronaphthalen-2-yl]propyl}-1-cyclopropylN-methylmethanesulfonamide hydrochloride], the Ki is at most 100 nM.

Consider `Cn1cnc(S(=O)(=O)NCCOc2ccc3c(c2)C(Cc2ccccc2)C(N2CCC2)CC3)c1` (stereo not drawn) [Example 145, N-(2-{[7-(Azetidin-1-yl)-8-benzyl-5,6,7,8-tetrahydronaphthalen-2-yl]oxy}ethyl)-1-methyl-1H-imidazole-4-sulfonamide], for which the Ki is at most 10 nM.

In the case of `CCCS(=O)(=O)N(C)CCCc1ccc2c(c1)C(Cc1ccc(F)cc1)C(N)CC2` (stereo not drawn) [Example 232, N-{3-[7-Amino-8-(4-fluorobenzyl)-5,6,7,8-tetrahydronaphthalen-2-yl]propyl}-N-methylpropane-1-sulfonamide hydrochloride], the Ki was at most 100 nM.

For `CCCS(=O)(=O)N(CCOc1ccc2c(c1)C(Cc1cccc(Cl)c1)C(N)CC2)C1CC1` (stereo not drawn) [Example 281, Propane-1-sulfonic acid {2-[7-amino-8-(3-chloro-benzyl)-5,6,7,8-tetrahydro-naphthalen-2-yloxy]-ethyl}-cyclopropyl-amide hydrochloride], the Ki was at most 100 nM.

As for `CN(CCOc1ccc2c(c1)C(Cc1ccccc1)C(N)CC2)S(=O)(=O)c1cnn(C)c1` (stereo not drawn) [Example 109, 1-Methyl-1H-pyrazole-4-sulfonic acid [2-(7-amino-8-benzyl-5,6,7,8-tetrahydro-naphthalen-2-yloxy)-ethyl]-methyl-amide], the Ki is at most 100 nM.

With `COc1cccc(CC2c3cc(OCCNS(=O)(=O)c4cn(C)cn4)ccc3CCC2N2CCCC2)c1` (stereo not drawn) [Example 164, N-(2-{[8-(3-Methoxybenzyl)-7-(pyrrolidin-1-yl)-5,6,7,8-tetrahydronaphthalen-2-yl]oxy}ethyl)-1-methyl-1H-imidazole-4-sulfonamide hydrochloride], the Ki is at most 10 nM.

As for `CCCS(=O)(=O)NCCOc1ccc2c(c1)C(Cc1ccccc1)C(N1CCC1)CC2` (stereo not drawn) [Example 148, Propane-1-sulfonic acid [2-(7-azetidin-1-yl-8-benzyl-5,6,7,8-tetrahydro-naphthalen-2-yloxy)-ethyl]-amide], the Ki was at most 100 nM.

With `CC(=O)NC1CCc2ccc(CCCNS(=O)(=O)CC3CC3)cc2C1Cc1cccc(F)c1` (stereo not drawn) [Example 218, N-[7-(3-{[(Cyclopropylmethyl)sulfonyl]amino}propyl)-1-(3-fluorobenzyl)-1,2,3,4-tetrahydronaphthalen-2-yl]acetamide], the Ki was at most 10000 nM.

For `CCCCCS(=O)(=O)NCCOc1ccc2c(c1)C(Cc1ccc(Cl)c(Cl)c1)C(N)CC2` (stereo not drawn) [Example 114, N-(2-(7-Amino-8-(3,4-dichlorobenzyl)-5,6,7,8-tetrahydronaphthalen-2-yloxy)ethyl)pentane-1-sulfonamide hydrochloride], the Ki is at most 1000 nM.

On to `CCOC(=O)NC1CCc2ccc(OCC3CN(S(=O)(=O)CC4CC4)C3)cc2C1Cc1cccc(Cl)c1` (stereo not drawn) [Example 289, [1-(3-Chloro-benzyl)-7-(1-cyclopropylmethanesulfonyl-azetidin-3-ylmethoxy)-1,2,3,4-tetrahydro-naphthalen-2-yl]-carbamic acid ethyl ester], for which the Ki is over 10000 nM.

For `CNC1CCc2ccc(CNS(=O)(=O)c3ccn(C)c3)cc2C1Cc1ccccc1` (stereo not drawn) [Example 190, N-{[8-Benzyl-7-(methylamino)-5,6,7,8-tetrahydronaphthalen-2-yl]methyl}-1-methyl-1H-pyrrole-3-sulfonamide hydrochloride], the Ki is at most 10 nM.
